Columns and labels:
Assay type in all cases: cell-based
M4 muscarinic receptor = molecular target: T1, M4 muscarinic receptor (Homo sapiens, UniProt P08173); assay: Functional mobilization of intracellular calcium (FLIPR), M4-CHO cells; conditions: for Emax: 100% efficacy = maximum response obtained with the Carbachol control; for M4 Activity: M4-CHO cells, calcium mobilization (FLIPR)
T1 construct: expressed in transfected cells; host or cells: CHO (M4-CHO)
T1 sequence (P08173 1-479): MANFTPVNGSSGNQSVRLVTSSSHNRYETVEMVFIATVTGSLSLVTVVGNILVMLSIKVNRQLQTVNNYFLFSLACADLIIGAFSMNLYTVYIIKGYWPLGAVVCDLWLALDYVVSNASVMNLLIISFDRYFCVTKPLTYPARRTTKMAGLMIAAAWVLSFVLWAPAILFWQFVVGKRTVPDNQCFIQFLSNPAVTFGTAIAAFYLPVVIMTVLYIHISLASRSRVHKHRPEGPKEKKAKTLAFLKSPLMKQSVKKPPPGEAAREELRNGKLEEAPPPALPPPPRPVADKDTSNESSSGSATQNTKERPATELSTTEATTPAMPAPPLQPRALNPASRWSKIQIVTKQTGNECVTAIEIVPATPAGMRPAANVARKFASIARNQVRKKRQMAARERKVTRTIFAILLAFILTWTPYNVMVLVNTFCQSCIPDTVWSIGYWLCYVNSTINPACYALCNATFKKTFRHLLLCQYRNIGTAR
Procedure: (§1) Functional Mobilization of Intracellular Calcium to Determine Muscarinic Receptor Activity:
(§2) CHO cells expressing muscarinic receptors (M1 to M5) are grown as monolayers in tissue culture flasks at 37° C. in a humidified atmosphere containing 5% CO2 and passaged every 3-5 days. The growth media is Dulbecco's modified eagles medium (DMEM, Gibco Cat #12430-054), containing 25 mM Hepes and supplemented with Fetal Bovine Serum (Hyclone, cat #SH30071.03), 0.1 mM of MEM non-essential amino acids (GIBCO, Cat #11140-050), 1 mM MEM Sodium Pyruvate (GIBCO Cat #11360-070) and 100 units/ml of Penicillin G and 100 μg/ml of Streptomycin (GIBCO Cat #15140-122). The recombinant muscarinic receptor cell lines are grown under antibiotic pressure with media containing 25 μg/ml zeocin and 500 μg/ml G418 (M1-CHO), 4 μg/ml puromycin, 50 μg/ml zeocin and 2.5 μg/ml blasticidin (M2 and M4-CHO) or 50 μg/ml zeocin and 4 μg/ml puromycin (M3 and M5-CHO).
(§3) Cells are harvested at 80-90% confluence using Versene (GIBCO Cat #15040-066), collected by centrifugation and seeded 18-24 hrs prior to running the calcium assay at a density of 5,000-10,000 cells/well in […], clear-bottomed 384-well plates (BD Biocoat, poly-D-lysine, Cat #356663). The day of the experiment, the cells are washed with a plate washer (Bioteck Instruments, ELX 405) using bath 1 buffer (140-mM NaCl, 4.5-mM KCl, 2-mM CaCl2, 1-mM MgCl2, 10-mM Hepes-Na, 10-mM Glucose, pH 7.4, with NaOH) containing 1 mM Probenecid. Next, the calcium dye Fluo-3 (25 μl/well of Fluo-3 AM at 4 μM, Molecular Probes F-1241, in Bath 1 buffer containing 1 mM Probenecid) is added to the 25 μl of Bath 1 remaining in each well after the plate wash and the dye is loaded at 37° C. in the tissue culture incubator for 60-90 min. The fluorescent dye is removed using the plate washer with Bath 1 containing 1 mM Probenecid, leaving 25 μl/well of this solution after the wash. Alternatively, cells can be loaded with the calcium indicator from Molecular Devices (Calcium 3 Assay Reagents, Cat #R7181) adding 5 μl of a 5× solution dye in Bath 1 containing 1 mM Probenecid (10 ml per dye flask cat #R7182 to generate a solution 20×) to 20 μl of the same buffer. After loading for 60 min, the experiment can be run without having to remove the dye.
(§4) Compounds are prepared at a 2× fold concentration in a 96-well plate (round bottom, Costar Corning cat #3656), by reconstituting the pre-spotted compounds in bath 1 containing 1 mM probenecid. The final concentration DMSO is 0.5%, and the amount of DMSO is normalized across the assay plate. To determine an agonist action of the compounds on muscarinic receptors, the reconstituted compounds are added (25 μl compound/well) to the cell assay plate (containing 25 μl/well) using the multi-channel robotic system of the FLIPR 3 Instrument (Molecular Devices, Sunnyvale, Calif.). To determine a functional inhibitory action of the compounds on muscarinic receptors, the reconstituted compounds are added (25 μl compound/well) to the assay plate and pre-incubated for 15 min prior to adding 25 μl of Carbachol at 3× the EC80 for each muscarinic subtype. Alternatively, the compounds can be co-applied simultaneously with the agonist. In both assay modes, the fluorescence is recorded for 60 sec (excitation wavelength is […] and emission wavelength 540 nm) using the FLIPR 3 instrument.
(§5) The potency, efficacy and selectivity of the muscarinic compounds were evaluated by screening the compound activity across the whole family (M1 to M5 cells). Compounds were also screened for activity on other proteins such as other GPCRs and ion channels to determine selectivity on M4 receptors.
(§6) Examples of activities and efficacies of the muscarinic compounds of formulae (I, Ia, Ib, and II) on modulating M1, M2, M3 and M4 receptors are shown below in Table 3. […]

M1 muscarinic receptor = molecular target: T2, M1 muscarinic receptor (Homo sapiens, UniProt P11229); assay: Functional mobilization of intracellular calcium (FLIPR), M1-CHO cells; conditions: for Emax: 100% efficacy = maximum response obtained with the Carbachol control; for M1 Activity: M1-CHO cells, calcium mobilization (FLIPR)
T2 construct: expressed in transfected cells; host or cells: CHO (M1-CHO)
T2 sequence (P11229 1-460): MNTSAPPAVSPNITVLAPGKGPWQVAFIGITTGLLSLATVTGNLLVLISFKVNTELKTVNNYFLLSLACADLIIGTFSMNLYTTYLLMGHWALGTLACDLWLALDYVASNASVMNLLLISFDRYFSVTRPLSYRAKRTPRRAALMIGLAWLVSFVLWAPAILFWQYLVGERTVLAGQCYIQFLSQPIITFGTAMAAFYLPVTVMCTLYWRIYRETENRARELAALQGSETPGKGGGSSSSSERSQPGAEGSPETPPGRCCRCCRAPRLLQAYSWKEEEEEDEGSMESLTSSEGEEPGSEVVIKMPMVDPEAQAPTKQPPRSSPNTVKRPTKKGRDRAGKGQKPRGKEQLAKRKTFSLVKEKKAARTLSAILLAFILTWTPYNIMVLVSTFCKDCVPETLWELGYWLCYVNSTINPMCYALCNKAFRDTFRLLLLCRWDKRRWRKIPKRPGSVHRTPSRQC
Procedure: as §1, §2, §3, §4, §5, §6

M2 muscarinic receptor = molecular target: T3, M2 muscarinic receptor (Homo sapiens, UniProt P08172); assay: Functional mobilization of intracellular calcium (FLIPR), M2-CHO cells; conditions: for Emax: 100% efficacy = maximum response obtained with the Carbachol control; for M2 Activity: M2-CHO cells, calcium mobilization (FLIPR)
T3 construct: expressed in transfected cells; host or cells: CHO (M2-CHO)
T3 sequence (P08172 1-466): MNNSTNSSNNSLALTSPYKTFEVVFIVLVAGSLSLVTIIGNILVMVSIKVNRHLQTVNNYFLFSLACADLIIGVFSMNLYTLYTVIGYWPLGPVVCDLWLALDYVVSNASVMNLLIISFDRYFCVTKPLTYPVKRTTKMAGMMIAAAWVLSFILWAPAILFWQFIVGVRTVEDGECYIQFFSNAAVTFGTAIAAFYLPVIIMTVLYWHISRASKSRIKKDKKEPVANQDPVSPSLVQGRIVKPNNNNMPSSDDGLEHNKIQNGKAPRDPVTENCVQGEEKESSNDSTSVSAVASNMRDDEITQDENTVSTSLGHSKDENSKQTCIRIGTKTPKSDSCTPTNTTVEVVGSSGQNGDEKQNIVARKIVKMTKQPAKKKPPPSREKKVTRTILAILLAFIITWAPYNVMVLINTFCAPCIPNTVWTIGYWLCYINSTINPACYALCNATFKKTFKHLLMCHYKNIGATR
Procedure: as §1, §2, §3, §4, §5, §6

SMILES	Emax (M4 muscarinic receptor) [%]	M4 Activity (M4 muscarinic receptor)	Emax (M1 muscarinic receptor) [%]	M1 Activity (M1 muscarinic receptor)	Emax (M2 muscarinic receptor) [%]	M2 Activity (M2 muscarinic receptor)
COc1ccc(Cl)cc1C1(O)CCN(C2CCC3CCC2C3)CC1 (stereo not drawn) [Compound 228]	25 to 100	++ (activity was measured to be from 1.0 μM to 5.0 μM)	< 25	+ (activity was measured to be greater than 5.0 μM)	< 25	+ (activity was measured to be greater than 5.0 μM)
COc1ccccc1C1(C#N)CCN(C2CCC3CCC2C3)CC1 (stereo not drawn) [Compound 240]	25 to 100	+++ (activity was measured to be less than 1.0 μM)	25 to 100	++ (activity was measured to be from 1.0 μM to 5.0 μM)	25 to 100	++ (activity was measured to be from 1.0 μM to 5.0 μM)
COc1ccc(C2CCN(C3C[C@H]4CC[C@H](C3)C4)CC2)c(C)c1 (stereo partly drawn) [Compound 244]	< 25	+ (activity was measured to be greater than 5.0 μM)	< 25	+ (activity was measured to be greater than 5.0 μM)	< 25	+ (activity was measured to be greater than 5.0 μM)
CCOC(=O)N1CCC(N2CCC(C#N)(c3ccccc3OC)CC2)CC1 [Compound 245, ethyl 4-cyano-4-(2-methoxyphenyl)-1,4′-bipiperidine-1′-carboxylate]	25 to 100	+++ (activity was measured to be less than 1.0 μM)	25 to 100	+++ (activity was measured to be less than 1.0 μM)	< 25	+ (activity was measured to be greater than 5.0 μM)
COc1ccccc1C1(C#N)CCN(C2CCCCCC2)CC1 [Compound 279]	25 to 100	++ (activity was measured to be from 1.0 μM to 5.0 μM)	< 25	++ (activity was measured to be from 1.0 μM to 5.0 μM)	< 25	+ (activity was measured to be greater than 5.0 μM)
COc1ccc(Cl)cc1C1(OC)CCN(C[C@@H]2C[C@H]3C=C[C@H]2C3)CC1 [Compound 286]	25 to 100	+++ (activity was measured to be less than 1.0 μM)	25 to 100	+ (activity was measured to be greater than 5.0 μM)	< 25	+ (activity was measured to be greater than 5.0 μM)
COc1ccc(Cl)cc1C1(OC)CCN(C2CC3CCC(C3)C2)CC1 (stereo not drawn) [Compound 288]	25 to 100	+++ (activity was measured to be less than 1.0 μM)	25 to 100	++ (activity was measured to be from 1.0 μM to 5.0 μM)	< 25	+ (activity was measured to be greater than 5.0 μM)
CCCC1CCC(N2CCC(c3cc(Cl)ccc3OC)CC2)CC1 (stereo not drawn) [Compound 293]	25 to 100	++ (activity was measured to be from 1.0 μM to 5.0 μM)	25 to 100	++ (activity was measured to be from 1.0 μM to 5.0 μM)	25 to 100	++ (activity was measured to be from 1.0 μM to 5.0 μM)
COc1ccc(Cl)cc1C1(O)CCN(C2CCOCC2)CC1 [Compound 304]	25 to 100	+ (activity was measured to be greater than 5.0 μM)	< 25	+ (activity was measured to be greater than 5.0 μM)	< 25	+ (activity was measured to be greater than 5.0 μM)
COc1ccc(Cl)cc1C1(OC)CCN(C2CC3CCC2C3)CC1 (stereo not drawn) [Compound 308]	25 to 100	++ (activity was measured to be from 1.0 μM to 5.0 μM)	< 25	+ (activity was measured to be greater than 5.0 μM)	< 25	+ (activity was measured to be greater than 5.0 μM)
COc1ccccc1C1CCN(C2CC3CCC2O3)CC1 (stereo not drawn) [Compound 312]	< 25	+ (activity was measured to be greater than 5.0 μM)	< 25	+ (activity was measured to be greater than 5.0 μM)	< 25	+ (activity was measured to be greater than 5.0 μM)
Cc1ccc(Cl)cc1C1CCN(CC2C[C@H]3CC[C@H]2C3)CC1 (stereo partly drawn) [Compound 315]	25 to 100	+++ (activity was measured to be less than 1.0 μM)	25 to 100	+ (activity was measured to be greater than 5.0 μM)	25 to 100	+ (activity was measured to be greater than 5.0 μM)
CCCC1CCC(N2CCC(OC)(c3cc(Cl)ccc3OC)CC2)CC1 (stereo not drawn) [Compound 316]	25 to 100	++ (activity was measured to be from 1.0 μM to 5.0 μM)	25 to 100	++ (activity was measured to be from 1.0 μM to 5.0 μM)	< 25	+ (activity was measured to be greater than 5.0 μM)
